Like-named read-outs stand apart in the source and are kept apart here. Where a SMILES comes first, the peptide text is derived from it. Bridges are numbered along the chain shown (N, C = ends). [ ]: non-standard residue; d: D form. The star is where a group is joined. hPhe(3-Cl-4-CF3) = N[C@@H](CCc1ccc(C(F)(F)F)c(Cl)c1)C(=O)O; NPrPhe(4-CF3) = CCCN[C@@H](Cc1ccc(C(F)(F)F)cc1)C(=O)O; NPrPhe(4-Me) = CCCN[C@@H](Cc1ccc(C)cc1)C(=O)O; Pro(4-spirocPr) = O=C(O)[C@@H]1CC2(CC2)CN1; NMeGly(cPent) = CN[C@H](C(=O)O)C1CCCC1; NMeD = CN[C@@H](CC(=O)O)C(=O)O; NMeL = CN[C@@H](CC(C)C)C(=O)O; Pip = O=C(O)[C@@H]1CCCCN1; Morpholide = C1CN(*)CCO1; Ac5c = NC1(C(=O)O)CCCC1; Aze = O=C(O)[C@@H]1CCN1; NEtG = CCNCC(=O)O; Sar = CNCC(=O)O
What was measured:
[1] = tested on: human lung cancer strain NCI-H441;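 also: cell proliferation inhibition after four days measured by CellTiter-Glo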
[2] = molecular target: GDP-bound KRAS wild-type protein (Homo sapiens, UniProt P01116); test: Binding to KRAS by surface plasmon resonance (SPR), Single Cycle Kinetics
Sequence of GDP-bound KRAS wild-type protein (P01116 whole entry): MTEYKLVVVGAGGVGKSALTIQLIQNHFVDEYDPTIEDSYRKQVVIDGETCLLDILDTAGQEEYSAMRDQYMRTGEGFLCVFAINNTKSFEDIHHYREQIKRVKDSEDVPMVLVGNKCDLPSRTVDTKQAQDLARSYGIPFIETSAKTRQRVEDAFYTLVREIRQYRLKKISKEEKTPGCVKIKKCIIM

[3] = molecular target: GDP-bound HRAS wild-type protein (Homo sapiens, UniProt P01112); test: Binding to HRAS by surface plasmon resonance (SPR), Single Cycle Kinetics; conditions: for HRAS/KRAS (ratio of KD value with respect to GDP-bound HRAS wild-type protein to KD value with respect to KRAS): SPR KD ratio HRAS/KRAS, class symbols; for HRAS/KRAS (ratio of KD value for HRAS to KD value for KRAS): GDP-bound HRAS wild-type protein vs GDP-bound KRAS wild-type protein
Sequence of GDP-bound HRAS wild-type protein (P01112 whole entry): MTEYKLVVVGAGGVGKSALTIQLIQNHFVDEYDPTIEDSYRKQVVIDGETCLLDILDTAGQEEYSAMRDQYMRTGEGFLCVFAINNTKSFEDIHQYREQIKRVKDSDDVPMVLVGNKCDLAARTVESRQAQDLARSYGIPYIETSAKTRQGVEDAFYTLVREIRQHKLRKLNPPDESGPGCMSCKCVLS

[4] = molecular target: GDP-bound NRAS wild-type protein (Homo sapiens, UniProt P01111); test: Binding to NRAS by surface plasmon resonance (SPR), Single Cycle Kinetics; conditions: for NRAS/KRAS (ratio of KD value for NRAS to KD value for KRAS): GDP-bound NRAS wild-type protein vs GDP-bound KRAS wild-type protein; for NRAS/KRAS (ratio of KD value with respect to GDP-bound NRAS wild-type protein to KD value with respect to KRAS): SPR KD ratio NRAS/KRAS, class symbols
Sequence of GDP-bound NRAS wild-type protein (P01111 whole entry): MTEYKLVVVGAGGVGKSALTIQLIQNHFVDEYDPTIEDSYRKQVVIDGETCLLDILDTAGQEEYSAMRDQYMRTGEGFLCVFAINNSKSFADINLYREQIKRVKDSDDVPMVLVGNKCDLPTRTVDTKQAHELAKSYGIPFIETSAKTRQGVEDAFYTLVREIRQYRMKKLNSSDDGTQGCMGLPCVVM

[5] = SPR Single Cycle Kinetics, GDP-bound KRAS wild-type protein, 1:1 binding model, read-out: KRAS KD
[6] = read-out: NCI-H441 cell proliferation inhibitory activity, 50% proliferation inhibitory concentration (IC50 value), NCI-H441, four days, CellTiter-Glo
[7] = SPR, Single Cycle Kinetics, 1:1 binding model, read-out: KD value with respect to GDP-bound KRAS wild-type protein
[8] = SPR, Single Cycle Kinetics, GDP-bound KRAS wild-type protein, read-out: KRAS KD

IC50 [1] | SMILES | HRAS/KRAS (ratio of KD value for HRAS to KD value for KRAS) ([3]; SPR) | NRAS/KRAS (ratio of KD value for NRAS to KD value for KRAS) ([4]; SPR) | further results
0.0038 µM | CCCN1C(=O)[C@@H]2CCN2C(=O)[C@H](C)NC(=O)[C@H]([C@@H](C)CC)NC(=O)[C@H](CC(C)C)N(C)C(=O)C[C@@H](C(=O)N2CCOCC2)N(C)C(=O)[C@H](C2CCCC2)N(C)C(=O)C2(CCCC2)NC(=O)[C@@H]2CCCN2C(=O)[C@H](CCc2ccc(C(F)(F)F)c(Cl)c2)NC(=O)CN(C)C(=O)[C@@H]1Cc1ccc(C)cc1 [PP0071] ([NMeL]IA[Aze][NPrPhe(4-Me)][Sar][hPhe(3-Cl-4-CF3)]P[Ac5c][NMeGly(cPent)][NMeD]-Morpholide; lactam N-11) | – | – | Kd [2, 5]: 0.00015 µM
– | CCC[C@H]1C(=O)N[C@@H]([C@@H](C)CC)C(=O)N(C)CC(=O)N(C)[C@H]2C/C=C\CCN(C2=O)[C@@H](Cc2ccc(C(F)(F)F)cc2)C(=O)N(C)CC(=O)N[C@@H](CCc2ccc(C(F)(F)F)c(OC)c2)C(=O)N2C[C@H](OCC)C[C@H]2C(=O)N(C)C2(CCC2)C(=O)N(C)[C@@H](C2CCCC2)C(=O)N(C)[C@H](C(=O)N2CCCCC2)CC(=O)N1C [PP3103, (2S,8S,12R,14S,20S,23S,27S,30S,36S,38Z)-20-cyclopentyl-12-ethoxy-8-[2-[3-methoxy-4-(trifluoromethyl)phenyl]ethyl]-4,16,19,22,26,32,35-heptamethyl-30-[(1S)-1-methylpropyl]-23-(piperidine-1-carbonyl)-27-propyl-2-[[4-(trifluoromethyl)phenyl]methyl]spiro[1,4,7,10,16,19,22,26,29,32,35-undecazatricyclo[34.5.1.0^10,14]dotetracont-38-ene-17,1′-cyclobutane]-3,6,9,15,18,21,25,28,31,34,42-undecone] | A (a compound having 10 or more and less than 20 is denoted as A) | – | IC50 [1, 6]: 0.0215 µM; ratio of the KD value with respect to GDP-bound HRAS wild-type protein to the KD value with respect to KRAS ([3]; SPR, KD(HRAS)/KD(KRAS)): A (a compound having 10 or more and less than 20 is denoted as A); Kd [2, 7]: 0.00021 µM; Kd [2, 8]: 0.00021 µM
0.179 µM | CCC[C@H]1C(=O)N[C@@H](CC(C)C)C(=O)N(C2CC2)CC(=O)N(C)[C@H]2C/C=C\CCN(C2=O)[C@@H](Cc2ccc(C)cc2)C(=O)N(C)CC(=O)N[C@@H](CCc2ccc(C(F)(F)F)c(Cl)c2)C(=O)N2C[C@H](OCC)C[C@H]2C(=O)NC2(CCC2)C(=O)N(C)[C@@H](C2CCCC2)C(=O)N(C)[C@H](C(=O)N(C)C)CC(=O)N1C [PP2543] | – | – | HRAS/KRAS (ratio of KD value with respect to GDP-bound HRAS wild-type protein to KD value with respect to KRAS) [3]: B (a compound having 3 or more and less than 10 is denoted as B); Kd [2, 5]: 0.0042 µM
0.0241 µM | CCCCCC[C@H]1C(=O)N[C@@H]([C@@H](C)CC)C(=O)N(C)CC(=O)N(C)[C@H]2C/C=C\CCN(C2=O)[C@@H](Cc2ccc(C(F)(F)F)cc2)C(=O)N(C)CC(=O)N[C@@H](CCc2cc(F)c(C(F)(F)F)c(F)c2)C(=O)N2C[C@H](OCC)C[C@H]2C(=O)NC2(CCC2)C(=O)N(C)[C@@H](C(CC)CC)C(=O)N(C)[C@H](C(=O)N(C)C)CC(=O)N1C [PP1202] | – | – | Kd [2, 8]: 0.0004 µM
– | CC[C@H](C)[C@@H]1NC(=O)[C@H](CC(C)C)N(C)C(=O)CSC[C@H](C(=O)N(C)C)N(C)C(=O)[C@H](C2CCCC2)N(C)C(=O)C2(CCCC2)NC(=O)[C@@H]2CCCN2C(=O)[C@H](CCc2cc(F)c(C(F)(F)F)c(F)c2)NC(=O)CN(C)C(=O)[C@H](Cc2ccc(C(F)(F)F)cc2)N2CC/C=C\C[C@@H](C2=O)N(C)C(=O)CN(C)C1=O [PP3109] | – | – | IC50 [1, 6]: 3.42 µM; Kd [2, 7]: 3 µM; Kd [2, 8]: 3 µM
0.0743 µM | CCCN1C(=O)CN(C)C(=O)CN(CC)C(=O)[C@H]([C@@H](C)CC)NC(=O)[C@H](CC(C)C)N(C)C(=O)C[C@@H](C(=O)N2CCOCC2)N(C)C(=O)[C@H](C2CCCC2)N(C)C(=O)C2(CCCC2)NC(=O)[C@@H]2CCCCN2C(=O)[C@H](CCc2ccc(C(F)(F)F)c(Cl)c2)NC(=O)CN(C)C(=O)[C@@H]1Cc1ccc(C(F)(F)F)cc1 [PP0297] ([NMeL]I[NEtG][Sar][NPrPhe(4-CF3)][Sar][hPhe(3-Cl-4-CF3)][Pip][Ac5c][NMeGly(cPent)][NMeD]-Morpholide; lactam N-11) | C (A compound having a KD ratio of 0.1 or more and less than 3 is denoted as C) | B (a compound having 3 or more and less than 10 is denoted as B) | –
0.206 µM | CCO[C@@H]1C[C@H]2C(=O)NC3(CCC3)C(=O)N(C)[C@@H](C3CCCC3)C(=O)N(C)[C@H](C(=O)N(C)C)CC(=O)N(C)[C@@H](CC)C(=O)N[C@@H]([C@@H](C)CC)C(=O)N(C)CC(=O)N(C)[C@H]3CCCCCN(C3=O)[C@@H](Cc3nccs3)C(=O)N(C)CC(=O)N[C@@H](CCc3cc(F)c(C(F)(F)F)c(F)c3)C(=O)N2C1 [PP0913] | B (a compound having 3 or more and less than 10 is denoted as B) | B (a compound having 3 or more and less than 10 is denoted as B) | –
0.0187 µM | CCCOC[C@H]1C(=O)N[C@@H]([C@@H](C)CC)C(=O)N(C)CC(=O)N(C)[C@H]2C/C=C\CCN(C2=O)[C@@H](Cc2ccc(C)cc2)C(=O)N(C)CC(=O)N[C@@H](CCc2cc(F)c(C(F)(F)F)c(F)c2)C(=O)N2C[C@H](CCC)C[C@H]2C(=O)NC2(CCC2)C(=O)N(C)[C@@H](C2CCCC2)C(=O)N(C)[C@H](C(=O)N(C)C)CC(=O)N1C [PP2232] | A (a compound having 10 or more and less than 20 is denoted as A) | A (a compound having 10 or more and less than 20 is denoted as A) | –
0.056 µM | CCCN1C(=O)CN(C)C(=O)[C@@H]2CCN2C(=O)[C@H]([C@@H](C)CC)NC(=O)[C@H](CC(C)C)N(C)C(=O)C[C@@H](C(=O)N2CCOCC2)N(C)C(=O)[C@H](C2CCCC2)N(C)C(=O)C2(CCCC2)NC(=O)[C@@H]2CC3(CC3)CN2C(=O)[C@H](CCc2ccc(C(F)(F)F)c(Cl)c2)NC(=O)CN(C)C(=O)[C@@H]1Cc1ccc(C(F)(F)F)cc1 [PP0308] ([NMeL]I[Aze][Sar][NPrPhe(4-CF3)][Sar][hPhe(3-Cl-4-CF3)][Pro(4-spirocPr)][Ac5c][NMeGly(cPent)][NMeD]-Morpholide; lactam N-11) | B (a compound having 3 or more and less than 10 is denoted as B) | B (a compound having 3 or more and less than 10 is denoted as B) | –
0.0311 µM | CCC[C@H]1C(=O)N[C@@H]([C@@H](C)CC)C(=O)N(C)CC(=O)N(C)[C@H]2C/C=C\CCN(C2=O)[C@@H](Cc2ccc(C)cc2)C(=O)N(C)CC(=O)N[C@@H](CCc2ccc(C(F)(F)F)c(OC)c2)C(=O)N2CC3(CC3)C[C@H]2C(=O)NC2(CC(C)(C)C2)C(=O)N(C)[C@@H]([C@@H](C)CC)C(=O)N(C)[C@H](C(=O)N(C)C)CC(=O)N1C [PP3011] | B (a compound having 3 or more and less than 10 is denoted as B) | A (a compound having 10 or more and less than 20 is denoted as A) | –
0.0228 µM | CCC(CC)[C@H]1C(=O)N(C)[C@H](C(=O)N(C)C)CC(=O)N(C)[C@@H](COC)C(=O)N[C@@H]([C@@H](C)CC)C(=O)N(C)CC(=O)N(C)[C@H]2C/C=C\CCN(C2=O)[C@@H](Cc2ccc(C)cc2)C(=O)N(C)CC(=O)N[C@@H](CCc2ccc(Cl)c(Cl)c2)C(=O)N2C[C@H](OC3CCC3)C[C@H]2C(=O)N(C)C2(CC(C)(C)C2)C(=O)N1C [PP2816] | – | – | NRAS/KRAS (ratio of KD value with respect to GDP-bound NRAS wild-type protein to KD value with respect to KRAS) [4]: AA (a compound having 20 or more is denoted as AA); HRAS/KRAS (ratio of KD value with respect to GDP-bound HRAS wild-type protein to KD value with respect to KRAS) [3]: A (a compound having 10 or more and less than 20 is denoted as A)
0.0058 µM | CCC[C@H]1C(=O)N[C@@H]([C@@H](C)CC)C(=O)N(C)CC(=O)N(C)[C@H]2C/C=C\CCN(C2=O)[C@@H](Cc2ccc(C(F)(F)F)cc2)C(=O)N(C)CC(=O)N[C@@H](CCc2cc(F)c(C(F)(F)F)c(F)c2)C(=O)N2C[C@H](OCC)C[C@H]2C(=O)NC2(CC(C)(C)C2)C(=O)N(C)[C@@H](CC(C)(C)C)C(=O)N(C)C(C(=O)N(C)C)CC(=O)N1C (stereo partly drawn) [PP2730] | – | – | NRAS/KRAS (ratio of KD value with respect to GDP-bound NRAS wild-type protein to KD value with respect to KRAS) [4]: A (a compound having 10 or more and less than 20 is denoted as A); HRAS/KRAS (ratio of KD value with respect to GDP-bound HRAS wild-type protein to KD value with respect to KRAS) [3]: A (a compound having 10 or more and less than 20 is denoted as A)
– | CCO[C@@H]1C[C@H]2C(=O)NC3(CCC3)C(=O)N(C)[C@@H](C3CCCC3)C(=O)N(C)[C@H](C(=O)N(CC)CC)CC(=O)N(C)[C@@H](CC(C)C)C(=O)N[C@@H]([C@@H](C)CC)C(=O)N(C)CC(=O)N(C)[C@H]3C/C=C\CCN(C3=O)[C@@H](Cc3ccc(C)cc3)C(=O)N(C)CC(=O)N[C@@H](CCc3ccc(C(F)(F)F)c(OC)c3)C(=O)N2C1 [PP1851] | – | – | NRAS/KRAS (KD ratio) ([4]; ratio of KD for GDP-bound NRAS wild-type protein to KD for KRAS, SPR): A (a compound having 10 or more and less than 20 is denoted as A); IC50 ([1]; read-out: NCI-H441 IC50, NCI-H441 cell proliferation, 4 days, CellTiter-Glo): 0.165 µM; HRAS/KRAS (KD ratio) ([3]; ratio of KD for GDP-bound HRAS wild-type protein to KD for KRAS, SPR): A (a compound having 10 or more and less than 20 is denoted as A)

SMILES | IC50 [1] | HRAS/KRAS (ratio of KD value for HRAS to KD value for KRAS) ([3]; SPR) | NRAS/KRAS (ratio of KD value for NRAS to KD value for KRAS) ([4]; SPR) | further results
CC[C@H](C)[C@@H]1NC(=O)[C@H](COC)N(C)C(=O)C[C@@H](C(=O)N2CCCCC2)N(C)C(=O)[C@H](C2CCCC2)N(C)C(=O)C2(CC(C)(C)C2)NC(=O)[C@@H]2C[C@@H](OC(C)C)CN2C(=O)[C@H](CCc2cc(F)c(C(F)(F)F)c(F)c2)NC(=O)CN(C)C(=O)[C@H](Cc2ccc(C(F)(F)F)cc2)N2CC/C=C\C[C@@H](C2=O)N(C)C(=O)CN(C)C1=O [PP2663] | 0.0112 µM | – | – | HRAS/KRAS (ratio of KD value with respect to GDP-bound HRAS wild-type protein to KD value with respect to KRAS) [3]: A (a compound having 10 or more and less than 20 is denoted as A); Kd [2, 5]: 0.00024 µM
